The record followed here is US7074801B1, “Nitrogen-containing condensed cyclic compound having a pyrazolyl group as a substituent group and pharmaceutical composition thereof” (Eisai Co., Ltd., priority 2001, dated 2006).

The assay relates to STAT6. Nature of the assay: Inhibitory test on STAT6 activation: IL-4-induced alkali phosphatase STAT6 reporter in 293 cells stably expressing the STAT6 gene and STAT6 reporter gene. The format is cell-based. The settings on record: HEK293, 1 ng/ml human recombinant IL-4, 16 hours, 293 cells with STAT6 reporter, read-out: Inhibitory activity IC50 (concentration at which the alkali phosphatase activity induced by IL-4 was inhibited by 50%). On the procedure:
The inhibitory action of the present compound on activation of STAT6 was evaluated according to the following experiments.
1) Construction of a STAT6 Reporter Gene
An oligonucleotide of SEQ ID NO:1 in which three STAT6-binding regions on a human immunoglobulin germline E gene promoter had been linked was mixed with its complementary chain, thermally denatured and annealed, and 5′- and 3′-ends thereof were cleaved with restriction enzymes Kpn I (Code No. 1068A, Takara Shuzo) and Xba I (Code No. 1093A, Takara Shuzo) respectively, and the resulting fragment was cloned into a Kpn I/Xba I site of pUG-BGH-PLAP vector (described in Molecular Pharmacology, 49:860–873, 1996). To induce a basic transcriptional factor, a TK promoter region of herpes virus was cloned into an Xba I/Hind III (Code No. 1060A, Takara Shuzo) site of the pUG-BGH-PLAP vector. To obtain a stably expressing cell strain, a neomycin resistance gene (PGK-neo expression cassette) was integrated with an Sal I (Code No. 1080A, Takara Shuzo) of this vector. Cloning of the TK promoter and PGK-neo expression cassette was carried out according to Molecular Pharmacology, 49:860–873, 1996.
The underlined sites are a Kpn I recognition site and Xba I recognition site respectively. 2) Construction of an STAT6 Expression Vector
An oligonucleotide of SEQ ID NO:2 containing an initiation codon of STAT6 gene and an oligonucleotide of SEQ ID NO:3 containing a stop codon were used, and total RNA was prepared from human peripheral blood cells by using RNeasy Mini kit (Code No. 74104, OIAGEN). Then, cDNA was prepared by reverse transcription reaction using Takara RNA LA PCR kit (Code No. RR012A, Takara Shuzo) and then subjected to PCR reaction with primers of SEQ ID NOS:2 and 3, to amplify the STAT6 gene. • (SEQ ID NO:2) 5′-[…]-3′ The underlined site is an EcoR I recognition site. • (SEQ ID NO:3) 5′-[…]-3′ The underlined site is an Xho I recognition site.
The PCR product was digested with EcoR I (Code No. 1040A, Takara Shuzo) and Xho I (1094A, Takara Shuzo), and the digested fragment was isolated on an agarose gel. The isolated fragment was integrated into a vector fragment obtained by digesting pcDNA3.1 (+) (Code No. U790-20, Invitrogen) vector with EcoRI/Xho I.
3) Introduction of the Gene and Preparation of a Stably Expressing Cell Strain
Human fetal kidney-derived 293 cells (American Type Culture Collection), 3.0×10^5 cells, were spread on a Falcon tissue culture 6-well plate (Code No. 35-3046, Becton Dickinson) and cultured overnight. 1.5 μg of the prepared STAT6 reporter gene, 1.5 μg of the STAT6 gene and 20 μl of lipofectamine (Code No. 18324-012, GIBCO BRL) were mixed in 0.3 ml OPTI-MEM medium (Code No. 31985-070) and left at room temperature for 20 minutes. Thereafter, 1.2 ml OPTI-MEM medium was further added to the cells washed with OPTI-MEM medium not containing fetal bovine serum, and the cells were cultured for 2 hours. 1.5 ml medium containing fetal bovine serum was added thereto, and the cells were cultured for additional 19 hours. The medium was exchanged with a fresh one, and Geneticin (Code No. G-5013, SIGMA) was added at a concentration of 1 mg/ml, and the cells were cultured, and chemical-resistant cells were selected. The resulting chemical-resistant cells were floated in a medium containing 1 mg/ml Geneticin, then spread at a density of 0.5 cell/well on a 96-well microplate (Code No. 35-3072, Becton Dickinson) and cloned to give a clone expressing alkali phosphatase in response to IL-4.
4) Inhibitory Test on STAT6 Activation
The cells stably expressing the STAT6 gene and STAT6 reporter gene and expressing alkali phosphatase in response to IL-4 were spread at a density of 5000 cells/180 μl/well on a 96-well microplate (Code No. 35-3072, Becton Dickinson) and cultured overnight. […]

Structures can show the parent of a compound that is named as a salt. Where two headings read alike, the source gives them in different places.

`Cc1n[nH]cc1-c1ccc2ncc(-c3ccc(C(=O)NCCc4ccccn4)c(F)c3)n2c1` [Example 648, N1-[2-(2-Pyridyl)ethyl]-2-fluoro-4-[6-(3-methyl-1H-4-pyrazolyl)imidazo[1,2-a]pyridin-3-yl] benzamide]: the IC50 (Table 1) lay within 10 to 100 nM.

For `O=C(Nc1nc(C2CC2)cs1)c1ccc(-c2cnc3ccc(-c4cn[nH]c4)cn23)cc1F` [Example 652, N1-(4-Cyclopropyl-1,3-thiazol-2-yl)-2-fluoro-4-[6-(1H-4-pyrazolyl)imidazo[1,2-a]pyridin-3-yl]benzamide dihydrochloride], the IC50 (Table 1) was less than 10 nM.

As to `Cc1cnc(NC(=O)c2ccc(-c3cnc4ccc(-c5cn[nH]c5)cn34)nc2)s1` [Example 655, N3-(5-Methyl-1,3-thiazol-2-yl)-6-[6-(1H-4-pyrazolyl)-imidazo[1,2-a]pyridin-3-yl]nicotinic acid amide trihydrochloride], the IC50 (Table 1) was 10 to 100 nM.

With `O=C(NC1(c2ccc(F)cc2F)CC1)c1ccc(-c2cnc3ccc(-c4cn[nH]c4)cn23)cc1F` [Example 661, N1-[1-(2,4-Difluorophenyl)cyclopropyl]-2-fluoro-4-[6-(1H-4-pyrazolyl)imidazo[1,2-a]pyridin-3-yl]benzamide hydrochloride], the IC50 (Table 1) was less than 10 nM.

As to `O=C(NC1(c2ccc(F)cc2)CC1)c1ccc(-c2cnc3ccc(-c4cn[nH]c4)cn23)cc1F` [Example 663, N1-[1-(4-Fluorophenyl)cyclopropyl]-2-fluoro-4-[6-(1H-4-pyrazolyl)imidazo[1,2-a]pyridin-3-yl]benzamide hydrochloride], where the note is “Table 1”, the IC50 was less than 10 nM.

With `O=C(Nc1nc2ccc(F)cc2s1)c1ccc(-c2cnc3ccc(-c4cn[nH]c4)cn23)cc1F` [Example 669, N1-(6-Fluoro-1,3-benzothiazol-2-yl)-2-fluoro-4-[6-(1H-4-pyrazolyl)imidazo[1,2-a]pyridin-3-yl]benzamide dihydrochloride], the IC50 (Table 1) is less than 10 nM.

On to `O=C(Nc1nc2ccc(OC(F)(F)F)cc2s1)c1ccc(-c2cnc3ccc(-c4cn[nH]c4)cn23)cc1F` [Example 670, N1-[6-(Trifluoromethoxy)-1,3-benzothiazol-2-yl]-2-fluoro-4-[6-(1H-4-pyrazolyl)imidazo[1,2-a]pyridin-3-yl]benzamide dihydrochloride], for which the IC50 (Table 1) was 10 to 100 nM.

Consider `C[C@H](NC(=O)c1ccc(-c2cnc3ccc(-c4cn[nH]c4)cn23)cc1F)C(=O)c1ccc(F)cc1` [Example 672, N1-[(1S)-2-(4-Fluorophenyl)-1-methyl-2-oxoethyl]-2-fluoro-4-[6-(1H-4-pyrazolyl)imidazo[1,2-a]pyridin-3-yl]benzamide hydrochloride], for which the IC50 (Table 1) is less than 10 nM.

On to `Cc1ccc(C(=O)C(C)(C)NC(=O)c2ccc(-c3cnc4ccc(-c5cn[nH]c5)cn34)cc2F)c(F)c1` [Example 674, hydrochloride], for which the IC50 (Table 1) was less than 10 nM.

Take `CCc1ccc(C(=O)C(C)(C)NC(=O)c2ccc(-c3cnc4ccc(-c5cn[nH]c5)cn34)cc2F)cc1` [Example 676, N1-[2-(4-Ethylphenyl)-1,1-dimethyl-2-oxyethyl]-2-fluoro-4-[6-(1H-4-pyrazolyl)imidazo[1,2-a]pyridin-3-yl]benzamide hydrochloride]: the IC50 (Table 1) was in the range of 10 to 100 nM.

On to `O=C(Nc1ccc(F)cc1F)c1ccc(-c2cnc3ccc(-c4cn[nH]c4)cn23)cc1F` [Example 678, N1-(2,4-Difluorophenyl)-2-fluoro-4-[6-(1H-4-pyrazolyl)-imidazo[1,2-a]pyridin-3-yl]benzamide hydrochloride], for which, under “Table 1”, the IC50 is less than 10 nM.

With `O=C(Nc1ccc(Cl)cn1)c1ccc(-c2cnc3ccc(-c4cn[nH]c4)cn23)cc1F` [Example 680, N1-(5-Chloro-2-pyridyl)-2-fluoro-4-[6-(1H-4-pyrazolyl)-imidazo[1,2-a]pyridin-3-yl]benzamide dihydrochloride], under “Table 1”, the IC50 is less than 10 nM.

For `Cc1ccnc(NC(=O)c2ccc(-c3cnc4ccc(-c5cn[nH]c5)cn34)cc2F)c1` [Example 681, N1-(4-Methyl-2-pyridyl)-2-fluoro-4-[6-(1H-4-pyrazolyl)-imidazo[1,2-a]pyridin-3-yl]benzamide dihydrochloride], the IC50 (Table 1) was less than 10 nM.

Regarding `Cc1cc(NC(=O)c2ccc(-c3cnc4ccc(-c5cn[nH]c5)cn34)cc2F)on1` [Example 688, N1-(3-Methylisoxazol-5-yl)-2-fluoro-4-[6-(1H-4-pyrazolyl)-imidazo[1,2-a]pyridin-3-yl]benzamide dihydrochloride], the IC50 (Table 1) is less than 10 nM.

Turning to `C=Cc1ccc(NC(=O)c2ccc(-c3cnc4ccc(-c5cn[nH]c5)cn34)cc2F)nc1` [Example 689, N1-(5-Vinyl-2-pyridyl)-2-fluoro-4-[6-(1H-4-pyrazolyl)-imidazo[1,2-a]pyridin-3-yl]benzamide dihydrochloride], where the note is “Table 1”, the IC50 was less than 10 nM.

On to `Fc1cc(Cl)ccc1-c1nc(-c2ccc(-c3cnc4ccc(-c5cn[nH]c5)cn34)cc2)no1` [Example 697, 5-(4-Chloro-2-fluorophenyl)-3-{4-[6-(1H-4-pyrazolyl)-imidazo[1,2-a]pyridin-3-yl]-1,2,4-oxadiazole hydrochloride], for which the IC50 (Table 1) was in the range of 10 to 100 nM.

Take `O=C(Nc1ccc(-c2cnc3ccc(-c4cn[nH]c4)cn23)cc1F)NC1CCCCC1` [Example 698, N-Cyclohexyl-N′-(2-fluoro-4-[6-(1H-4-pyrazolyl)imidazo[1,2-a]pyridin-3-yl]phenyl}urea hydrochloride]: the IC50 (Table 1) is 10 to 100 nM.

In the case of `CC(C)NC(=O)Nc1ccc(-c2cnc3ccc(-c4cn[nH]c4)cn23)cc1F` [Example 699, N-12-Fluoro-4-[6-(1H-4-pyrazolyl)imidazo[1,2-a]pyridin-3-yl] phenyl}-N′-isopropylurea hydrochloride], for the setting “Table 1”, the IC50 lay in the range of 10 to 100 nM.

For the compound `NS(=O)(=O)c1ccc(NC(=O)c2ccc(-c3cnc4ccc(-c5cn[nH]c5)cn34)cc2F)cc1` [Example 700, N1-[4-(Aminosulfonyl)phenyl]-2-fluoro-4-[6-(1H-4-pyrazolyl)imidazo[1,2-a]pyridin-3-yl]benzamide hydrochloride], where the note is “Table 2”, the IC50 lay in the range of 10 to 100 nM.

With `CS(=O)(=O)c1ccccc1NC(=O)c1ccc(-c2cnc3ccc(-c4cn[nH]c4)cn23)cc1F` [Example 701, N1-[2-(Methylsulfonyl)phenyl]-2-fluoro-4-[6-(1H-4-pyrazolyl)imidazo[1,2-a]pyridin-3-yl]benzamide hydrochloride], for the setting “Table 2”, the IC50 fell in the range of 10 to 100 nM.

For `O=C(Nc1ccc(-c2cnc3ccc(-c4cn[nH]c4)cn23)cc1F)c1ccc(F)cc1` [Example 705, N1-{2-Fluoro-4-[6-(1H-4-pyrazolyl)imidazo[1,2-a]pyridin-3-yl]phenyl}-4-fluorobenzamide hydrochloride], the IC50 (Table 2) lay within 10 to 100 nM.

Turning to `O=C(NCc1cccc(OC(F)F)c1)c1ccc(-c2cnc3ccc(-c4cn[nH]c4)cn23)cc1F` [Example 706, N1-[3-(Difluoromethoxy)benzyl]-2-fluoro-4-[6-(1H-4-pyrazolyl)imidazo[1,2-a]pyridin-3-yl]benzamide hydrochloride], for the setting “Table 2”, the IC50 was less than 10 nM.

With `CC(NC(=O)c1ccc(-c2cnc3ccc(-c4cn[nH]c4)cn23)cc1F)c1ccccn1` (centres unmarked) [Example 707, N1-[1-(2-Pyridyl)ethyl]-2-fluoro-4-[6-(1H-4-pyrazolyl)-imidazo[1,2-a]pyridin-3-yl]benzamide dihydrochloride], the IC50 (Table 2) was 10 to 100 nM.
